Source: patent US10752581B2, “4-((2-hydroxy-3-methoxybenzyl)amino)benzenesulfonamide derivatives as potent and selective inhibitors of 12-lipoxygenase” (Eastern Virginia Medical School, priority 2013, dated 2020)
Entries after “also recorded” stand apart in the source; their conditions may differ.

Assays:
[1] = system: FcγRIIa-stimulated platelets; assay: Rap1 activation after FcγRIIa stimulation; format: cell-based, human; conditions: ML355 pre-treatment
From the text: (§1) Preparation of washed human platelets: Prior to blood collection written informed consent was obtained from all volunteers. Washed platelets were isolated from the blood of healthy volunteers as previously described (14). Washed platelets were resuspended in tyrodes buffer at 3.0×10^8 platelets/mL unless otherwise indicated.
(§2) FcγRIIa-mediated platelet activation: FcγRIIa-mediated platelet activation was initiated by two distinct models; either 1) FcγRIIa antibody cross-linking or 2) CD9 monoclonal antibody stimulation. To cross-link FcγRIIa, washed platelets were incubated with IV.3, an FcγRIIa mouse monoclonal antibody, for one minute followed by the addition of a goat anti-mouse (GAM) IgG antibody to cross-link FcγRIIa. The concentration of FcγRIIa cross-linking antibodies used for each experiment is indicated in the text. Alternatively, washed human platelets were stimulated with an anti-CD9 monoclonal antibody to activate FcγRIIa mediated signaling. Due to inter-individual variability in anti-CD9 response, a range of anti-CD9 concentration (0.25-1 μg/ml) was used to achieve an aggregation of EC80. In studies using the 12-LOX inhibitor (ML355), washed platelets were incubated with either ML355 (20 μM), or DMSO (vehicle control) for 15 minutes prior to FcγRIIa stimulation. […]

[2] = system: human donor islet preparations; assay: Glucose-stimulated insulin secretion in human islets; format: cell-based; conditions: cytokines (TNFα, IL-1β, IFNγ); 3 mM or 18 mM glucose
Experimental: FIGS. 3D and 3E show results from glucose-stimulated insulin secretion in human donor islet preparations in response to 3 mM glucose (Low) or 18 mM glucose (High) for control (untreated) islets. […] FIGS. 3D and 3E represent results obtained in different human donor islet preparations.

washed human platelets [3] = assay: PAR4-AP-induced calcium mobilization; format: cell-based; conditions: 200 μM PAR4-AP; increasing concentrations
Experimental: (§3) Blood was centrifuged at 200 g for 13 min at room temperature.

in vivo = conditions: male, CD1, mouse
Caco-2 = Caco-2 assay permeability; format: in vitro ADME; conditions: A→B
[4] = system: FcγRIIa-stimulated platelets; assay: PLCγ2 phosphorylation after FcγRIIa cross-linking; format: cell-based, human; conditions: ML355 (20 μM); 15 and 30 seconds
Experimental: FcγRIIa-mediated platelet activation: FcγRIIa-mediated platelet activation was initiated by two distinct models; either 1) FcγRIIa antibody cross-linking or 2) CD9 monoclonal antibody stimulation. To cross-link FcγRIIa, washed platelets were incubated with IV.3, an FcγRIIa mouse monoclonal antibody, for one minute followed by the addition of a goat anti-mouse (GAM) IgG antibody to cross-link FcγRIIa. The concentration of FcγRIIa cross-linking antibodies used for each experiment is indicated in the text. Alternatively, washed human platelets were stimulated with an anti-CD9 monoclonal antibody to activate FcγRIIa mediated signaling. Due to inter-individual variability in anti-CD9 response, a range of anti-CD9 concentration (0.25-1 μg/ml) was used to achieve an aggregation of EC80. In studies using the 12-LOX inhibitor (ML355), washed platelets were incubated with either ML355 (20 μM), or DMSO (vehicle control) for 15 minutes prior to FcγRIIa stimulation.
PLCγ2 phosphorylation: Washed human platelets were adjusted to 5×10^8 platelets/mL and stimulated in an aggregometer by antibody cross-linking of FcγRIIa and lysed at designated times with 5× reducing buffer to stop the reaction. Samples were separated on a 7.5% SDS-PAGE gel. Antibodies to PLCy2 and phospho-Y759 PLCy2, a marker of PLCy2 activation, were used to evaluate the relative levels of total and active PLCy2, respectively.

[5] = system: FcγRIIa-stimulated platelets; assay: αIIbβ3 activation after FcγRIIa stimulation; format: cell-based, human; conditions: ML355 pre-treatment; IV.3 + GAM
From the text: as §1
as §2, with “signaling.” for “signaling. Due to inter-individual variability in anti-CD9 response, a range of anti-CD9 concentration (0.25-1 μg/ml) was used to achieve an aggregation of EC80. In studies using the 12-LOX inhibitor (ML355), washed platelets were incubated with either ML355 (20 μM), or DMSO (vehicle control) for 15 minutes prior to FcγRIIa stimulation.”
Alpha granule release and αIIbβ3 activation: Prior to stimulation, washed platelets were pre-incubated with a either FITC-conjugated P-selectin antibody or FITC-conjugated PAC-1, an antibody specific for the active conformation of αIIb3. […] Fluorescence intensity was measured by flow cytometry. Results are reported as mean fluorescence intensity.

washed human platelets [6] = assay: FcγRIIa-mediated platelet aggregation; format: cell-based; conditions: ML355 20 μM, 15 minutes; anti-CD9 stimulation or IV.3 + GAM cross-linking
From the text: as §1
as §2, with “EC80.” for “EC80. In studies using the 12-LOX inhibitor (ML355), washed platelets were incubated with either ML355 (20 μM), or DMSO (vehicle control) for 15 minutes prior to FcγRIIa stimulation.”
Platelet aggregation: Platelet aggregation was measured with a lumi-aggregometer (Chronolog Corp, Model 700D) under stirring conditions at 37° C.

[7] = system: FcγRIIa-stimulated platelets; assay: Dense granule secretion (ATP release) after FcγRIIa stimulation; format: cell-based, human; conditions: compared with DMSO treated platelets
From the text: as §1
as §2, with “EC80.” for “EC80. In studies using the 12-LOX inhibitor (ML355), washed platelets were incubated with either ML355 (20 μM), or DMSO (vehicle control) for 15 minutes prior to FcγRIIa stimulation.”
Dense granule secretion: ATP release was measured from washed platelets as surrogate for dense granule secretion. […] Platelets were stimulated with FcγRII antibody cross-linking under stirring conditions and fluorescence was measured in real-time using a lumi-aggregometer.

[8] = PBS buffer (pH 7.4) solubility; format: physicochemical; conditions: PBS buffer, pH 7.4, aqueous buffer
[9] = system: human primary donor islets; assay: Human Islet (12-HETE Inhibition) Assay; format: cell-based; conditions: 10 μM
[10] = system: FcγRIIa-stimulated platelets; assay: Syk phosphorylation after FcγRIIa cross-linking; format: cell-based, human; conditions: ML355 (20 μM)
Experimental: FIGS. 15A-15B show the role of 12-LOX in regulating the FcγRIIa signaling complex. Washed human platelets were pre-treated with ML355 (20 μM) or vehicle control prior to IV.3 and GAM stimulation. (FIG. 15A) Immunoprecipitation of FcγRIIa at 15, 30, and 60 seconds post crosslinking and measured for phosphorylation via Western blot. (FIG. 15B) Platelets were lysed following FcγRIIa cross-linking in the presence of ML355 or DMSO were immunoblotted for active (pY323) and total Syk.
Phosphorylation of FcγRIIa results in recruitment and activation of the tyrosine kinase Syk which is crucial for the formation of the LAT signalosome. The phosphorylation of Syk was measured following FcγRIIa stimulation of platelets in the presence or absence of ML355. The degree of Syk phosphorylation in response to FcγRIIa cross-linking in the presence of ML355 was varied in the subjects tested and may be due to inter-individual variability. […] To assess if 12-LOX regulates PLCy2 activation downstream of FcγRIIa, PLCy2 phosphorylation was measured in washed human platelets in the presence or absence of ML355. Platelets stimulated by FcγRIIa antibody cross-linking were phosphorylated within 15 seconds following stimulation. […]

washed human platelets [11] = assay: PAR4-AP-induced platelet aggregation; format: cell-based
Experimental: as §3

[12] = male, CD1, mouse, in vivo, intravenous, 3 mpk
[13] = male, CD1, mouse, in vivo, iv, 3 mg/kg
[14] = male, CD1, mouse, in vivo, po, 30 mg/kg

COc1cccc(CNc2ccc(S(=O)(=O)Nc3nc4ccccc4s3)cc2)c1O [Compound 35, N-(benzo[d]thiazol-2-yl)-4-((2-hydroxy-3-methoxybenzyl)amino)benzenesulfonamide]
Rap1 activation [1]: failed to activate Rap1 | glucose-stimulated insulin secretion with cytokines [2]: Uncoupling of glucose-stimulated insulin secretion by cytokines is inhibited | PAR4-AP-induced calcium mobilization (in words) (washed human platelets [3]): Calcium mobilization was decreased | half-life (in vivo): 2.9 h | permeability (1 × 10^−6 cm/s) (Caco-2): 1.5 (A→B)^a 1 × 10^−6 cm/s | PLCγ2 phosphorylation [4]: attenuated PLCy2 phosphorylation at 15 and 30 seconds | αIIbβ3 activation [5]: significant attenuated along multiple signaling steps | FcγRIIa-mediated platelet aggregation (washed human platelets [6]): attenuated FcγRIIa-mediated platelet aggregation; also recorded: significantly attenuated aggregation | ATP release (dense granule secretion) [7]: significant decrease in ATP release | solubility [8]: < 5 µg/mL | AA/IONO-induced 12-HETE production in human islets [9]: significant inhibition of AA/IONO-induced 12-HETE production | Syk phosphorylation [10]: attenuation of Syk phosphorylation in the presence of ML355 was minor | time remaining over IC50 value (In Vivo PK (Mouse); 30 mpk dosing): over 12 hours | % F (In Vivo PK (Mouse); PO, 30 mpk): 19.8% | Vd (In Vivo PK (Mouse); [12]): 0.55 L/kg | clearance (In Vivo PK (Mouse); [12]): 3.4 mL/min/kg | AUC(0-inf) (In Vivo PK (Mouse); [13]): 34 µM·h | Cmax (In Vivo PK (Mouse); [13]): 112 µM | Vd (In Vivo PK (Mouse); [13]): 0.55 L/kg | clearance (In Vivo PK (Mouse); [13]): 3.4 mL/min/kg | half-life (In Vivo PK (Mouse); [13]): 3.4 h | AUC(0-inf) (In Vivo PK (Mouse); [14]): 67 µM·h | Cmax (In Vivo PK (Mouse); [14]): 38 µM | bioavailability (In Vivo PK (Mouse); [14]): ~20% | half-life (In Vivo PK (Mouse); [14]): 2.9 h | PAR4-AP induced platelet aggregation (in words) (washed human platelets [11]): significantly reduce PAR4-AP induced platelet aggregation | platelet aggregation at 10 μM (washed human platelets [11]; 10 μM, PAR4-AP): did not inhibit platelet aggregation
